Test results published in patent US20240190874A1, “SMALL MOLECULE DEGRADERS OF ANDROGEN RECEPTOR” (THE REGENTS OF THE UNIVERSITY OF MICHIGAN, priority 2021, published 2024).
Where two headings read alike, the source gives them in different places.

Experiments:
Type in all cases: cell-based
AR = molecular target: T1, AR (Homo sapiens, UniProt P10275); assay: Degradation of AR in VCaP cells; settings: VCaP cells; for Dmax: VCaP
T1 construct: Degradation of AR; Cellular potency; host or cells: VCaP cells
T1 sequence (P10275 1-920): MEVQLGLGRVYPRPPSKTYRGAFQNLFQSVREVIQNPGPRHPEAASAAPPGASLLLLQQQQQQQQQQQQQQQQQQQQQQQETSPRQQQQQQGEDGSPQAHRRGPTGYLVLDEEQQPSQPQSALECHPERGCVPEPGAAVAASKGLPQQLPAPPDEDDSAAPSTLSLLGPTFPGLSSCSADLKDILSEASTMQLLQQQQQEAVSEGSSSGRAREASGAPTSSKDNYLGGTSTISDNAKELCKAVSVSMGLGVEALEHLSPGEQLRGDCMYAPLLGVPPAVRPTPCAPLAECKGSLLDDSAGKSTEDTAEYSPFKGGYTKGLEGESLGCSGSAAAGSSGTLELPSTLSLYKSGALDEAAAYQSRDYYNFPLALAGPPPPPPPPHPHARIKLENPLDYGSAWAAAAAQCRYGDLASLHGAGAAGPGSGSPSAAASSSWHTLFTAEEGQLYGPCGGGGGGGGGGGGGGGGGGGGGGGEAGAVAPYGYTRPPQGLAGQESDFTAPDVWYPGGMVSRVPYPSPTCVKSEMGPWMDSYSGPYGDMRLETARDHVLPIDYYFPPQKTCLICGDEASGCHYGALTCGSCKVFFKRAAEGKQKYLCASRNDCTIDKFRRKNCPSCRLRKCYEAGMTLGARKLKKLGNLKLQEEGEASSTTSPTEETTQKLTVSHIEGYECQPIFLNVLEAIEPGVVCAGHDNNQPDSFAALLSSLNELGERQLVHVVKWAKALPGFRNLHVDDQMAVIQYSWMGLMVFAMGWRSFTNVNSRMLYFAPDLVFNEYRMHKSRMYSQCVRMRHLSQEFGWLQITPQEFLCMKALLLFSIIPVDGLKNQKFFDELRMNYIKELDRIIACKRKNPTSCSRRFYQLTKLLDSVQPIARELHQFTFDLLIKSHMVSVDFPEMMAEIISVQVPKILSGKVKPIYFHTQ
Procedure: (§1) Biological Assays. LNCaP and VCaP cells used were purchased from American Type Culture Collection (ATCC). LNCaP were grown in RPMI 1640 (Invitrogen) and VCaP cells were grown in DMEM with Glutamax (Invitrogen). All of the cells were supplemented with 10% fetal bovine serum (Invitrogen) at 37° C. in a humidified 5% CO2 incubator.

LNCaP cells = assay: Cellular potency (IC50) in LNCaP cells
Procedure: as §1

VCaP cells = assay: Cellular potency (IC50) in VCaP cells
Procedure: as §1

## C[C@H]1CC2(CCN(c3ccc(N4CCN(C5CN(c6ccc7c(c6)C(=O)N(C6CCC(=O)NC6=O)C7=O)C5)CC4)cn3)CC2)CN1c1ccc(C#N)c(Cl)c1 (stereo partly shown) [compound 33]
AR
  DC50: < 10 nM
  Dmax: 70 to 90%
LNCaP cells; Homo sapiens, LNCaP
  IC50: < 10 nM
VCaP cells; Homo sapiens, VCaP
  IC50: < 10 nM

## C[C@H]1CC2(CCN(c3ccc(N4CCN(CC5CN(c6ccc7c(c6)C(=O)N(C6CCC(=O)NC6=O)C7=O)C5)CC4)cc3)CC2)CN1c1ccc(C#N)c(Cl)c1 (stereo partly drawn) [compound 28, 2-chloro-4-((3S)-8-(4-(4-((1-(2-(2,6-dioxopiperidin-3-yl)-1,3-dioxoisoindolin-5-yl)azetidin-3-yl)methyl)piperazin-1-yl)phenyl)-3-methyl-2,8-diazaspiro[4.5]decan-2-yl)benzonitrile]
AR
  Dmax: > 90%
LNCaP cells; Homo sapiens, LNCaP
  IC50: < 10 nM
VCaP cells; Homo sapiens, VCaP
  IC50: < 10 nM

## C[C@H]1CC2(CCN(c3ccc(OC4CN(C5CN(c6ccc7c(c6)C(=O)N(C6CCC(=O)NC6=O)C7=O)C5)C4)nc3)CC2)CN1c1ccc(C#N)c(Cl)c1 (stereo partly shown) [compound 71]
AR
  DC50: < 100 nM
  Dmax: 50 to 70%
LNCaP cells; Homo sapiens, LNCaP
  IC50: < 1000 nM
VCaP cells; Homo sapiens, VCaP
  IC50: < 1000 nM

## C[C@H]1CC2(CCN(c3ccc(OC4CN(C5CN(c6ccc7c(c6)C(=O)N(C6CCC(=O)NC6=O)C7=O)C5)C4)cn3)CC2)CN1c1ccc(C#N)c(Cl)c1 (stereo partly shown) [compound 69]
AR
  DC50: < 1 nM
  Dmax: > 90%
LNCaP cells; Homo sapiens, LNCaP
  IC50: < 10 nM
VCaP cells; Homo sapiens, VCaP
  IC50: < 10 nM

## C[C@H]1CC2(CCN(c3ccc(OC4CN(C5CCN(c6ccc7c(c6)C(=O)N(C6CCC(=O)NC6=O)C7=O)CC5)C4)cn3)CC2)CN1c1ccc(C#N)c(Cl)c1 (stereo partly shown) [compound 70]
AR
  DC50: < 100 nM
  Dmax: 50 to 70%
LNCaP cells; Homo sapiens, LNCaP
  IC50: < 1000 nM
VCaP cells; Homo sapiens, VCaP
  IC50: < 1000 nM

## C[C@H]1CC2(CCN(c3ccc(CC4CCN(C5CN(c6ccc7c(c6)C(=O)N(C6CCC(=O)NC6=O)C7=O)C5)CC4)nn3)CC2)CN1c1ccc(C#N)c(Cl)c1 (stereo partly shown) [compound 198]
AR
  DC50: < 10 nM
LNCaP cells; Homo sapiens, LNCaP
  IC50: < 10 nM
VCaP cells; Homo sapiens, VCaP
  IC50: < 10 nM

## C[C@H]1CC2(CCN(c3ccc(CN4CCC(C5CN(c6ccc7c(c6)C(=O)N(C6CCC(=O)NC6=O)C7=O)C5)CC4)c(F)c3)CC2)CN1c1ccc(C#N)c(Cl)c1 (stereo partly shown) [compound 41]
AR
  DC50: < 10 nM
  Degradation of AR in VCaP cells Dmax: A (A = >90%)
LNCaP cells
  IC50: < 100 nM
VCaP cells
  IC50: < 100 nM

## C=C1CCC(N2C(=O)c3ccc(N4CC(C5CCN(Cc6ccc(N7CCC8(CC7)C[C@H](C)N(c7ccc(C#N)c(Cl)c7)C8)cc6)CC5)C4)cc3C2=O)C(=O)N1 (stereo partly shown) [compound 16]
AR
  Dmax: > 90%
LNCaP cells; Homo sapiens, LNCaP
  IC50: < 10 nM
VCaP cells; Homo sapiens, VCaP
  IC50: < 10 nM

## C[C@H]1CC2(CCN(c3ccc(CC4CCN(C5CN(c6ccc7c(c6)C(=O)N(C6CCC(=O)NC6=O)C7=O)C5)CC4)nc3)CC2)CN1c1ccc(C#N)c(Cl)c1 (stereo partly shown) [compound 197]
AR
  DC50: < 1 nM
LNCaP cells; Homo sapiens, LNCaP
  IC50: < 10 nM
VCaP cells; Homo sapiens, VCaP
  IC50: < 10 nM

## C[C@H]1CC2(CCN(c3ccc(OC4CN(C5CCN(c6ccc7c(c6)C(=O)N(C6CCC(=O)NC6=O)C7=O)CC5)C4)cc3)CC2)CN1c1ccc(C#N)c(Cl)c1 (stereo partly shown) [compound 60]
AR
  DC50: < 1 nM
  Dmax: > 90%
LNCaP cells; Homo sapiens, LNCaP
  IC50: < 10 nM
VCaP cells; Homo sapiens, VCaP
  IC50: < 10 nM

## C[C@H]1CC2(CCN(c3ccc(N4CCN(CC5CN(c6ccc7c(c6)C(=O)N(C6CCC(=O)NC6=O)C7=O)C5)CC4)nn3)CC2)CN1c1ccc(C#N)c(Cl)c1 (stereo partly shown) [compound 47]
AR
  DC50: < 1 nM
  Dmax: > 90%
LNCaP cells; Homo sapiens, LNCaP
  IC50: < 10 nM
VCaP cells; Homo sapiens, VCaP
  IC50: < 10 nM

## C[C@H]1CC2(CCN(c3ccc(N4CCC(NC5CN(c6ccc7c(c6)C(=O)N(C6CCC(=O)NC6=O)C7=O)C5)CC4)cc3)CC2)CN1c1ccc(C#N)c(Cl)c1 (stereo partly shown) [compound 120]
AR
  DC50: < 1 nM
  Dmax: > 90%
LNCaP cells; Homo sapiens, LNCaP
  IC50: < 10 nM
VCaP cells; Homo sapiens, VCaP
  IC50: < 10 nM

## C[C@H]1CC2(CCN(c3cnc(N4CCN(CC5CCN(c6ccc7c(c6)C(=O)N(C6CCC(=O)NC6=O)C7=O)CC5)CC4)cn3)CC2)CN1c1ccc(C#N)c(Cl)c1 (stereo partly shown) [compound 50]
AR
  DC50: < 10 nM
  Dmax: > 90%
LNCaP cells; Homo sapiens, LNCaP
  IC50: < 100 nM
VCaP cells; Homo sapiens, VCaP
  IC50: < 100 nM

## C[C@H]1CC2(CCN(c3ccc(CN4CC(N5CCN(c6cc7c(cc6F)C(=O)N(C6CCC(=O)NC6=O)C7=O)CC5)C4)cn3)CC2)CN1c1ccc(C#N)c(Cl)c1 (stereo partly shown) [compound 205]
AR
  DC50: < 1 nM
LNCaP cells; Homo sapiens, LNCaP
  IC50: < 10 nM
VCaP cells; Homo sapiens, VCaP
  IC50: < 10 nM

## C[C@H]1CC2(CCN(c3ccc(S(=O)(=O)C4CCN(C5CN(c6ccc7c(c6)C(=O)N(C6CCC(=O)NC6=O)C7=O)C5)CC4)cc3)CC2)CN1c1ccc(C#N)c(Cl)c1 (stereo partly shown) [compound 163]
AR
  DC50: < 1 nM
LNCaP cells; Homo sapiens, LNCaP
  IC50: < 10 nM
VCaP cells; Homo sapiens, VCaP
  IC50: < 10 nM

## C[C@H]1CC2(CCN(c3ccc(CC4CCN(C5CN(c6ccc7c(c6)C(=O)N(C6CCC(=O)NC6=O)C7=O)C5)CC4)cn3)CC2)CN1c1ccc(C#N)c(Cl)c1 (stereo partly shown) [compound 196]
AR
  DC50: < 1 nM
LNCaP cells; Homo sapiens, LNCaP
  IC50: < 10 nM
VCaP cells; Homo sapiens, VCaP
  IC50: < 100 nM

## C[C@H]1CC2(CCN(c3ccc(C(=O)N4CCC(N5Cc6cc7c(cc6C5)C(=O)N(C5CCC(=O)NC5=O)C7=O)CC4)s3)CC2)CN1c1ccc(C#N)c(Cl)c1 (stereo partly shown) [compound 138]
AR
  DC50: < 10 nM
  Dmax: 70 to 90%
LNCaP cells; Homo sapiens, LNCaP
  IC50: < 100 nM
VCaP cells; Homo sapiens, VCaP
  IC50: < 100 nM

## C[C@H]1CC2(CCN(c3ccc(N4CCC(OC5CN(c6ccc7c(c6)C(=O)N(C6CCC(=O)NC6=O)C7=O)C5)CC4)cc3)CC2)CN1c1ccc(C#N)c(Cl)c1 (stereo partly shown) [compound 90]
AR
  DC50: < 1 nM
  Dmax: > 90%
LNCaP cells; Homo sapiens, LNCaP
  IC50: < 10 nM
VCaP cells; Homo sapiens, VCaP
  IC50: < 10 nM

## C[C@H]1CC2(CCN(c3cnc(CN4CCN(C5CN(c6ccc7c(c6)C(=O)N(C6CCC(=O)NC6=O)C7=O)C5)CC4)cn3)CC2)CN1c1ccc(C#N)c(Cl)c1 (stereo partly shown) [compound 185]
AR
  DC50: < 1 nM
LNCaP cells; Homo sapiens, LNCaP
  IC50: < 100 nM
VCaP cells; Homo sapiens, VCaP
  IC50: < 100 nM

## C[C@H]1CC2(CCN(c3ccc(CN4CC(N5CCN(c6ccc7c(c6)C(=O)N(C6CCC(=O)NC6=O)C7=O)CC5)C4)cn3)CC2)CN1c1ccc(C#N)c(Cl)c1 (stereo partly shown) [compound 204]
AR
  DC50: < 1 nM
LNCaP cells; Homo sapiens, LNCaP
  IC50: < 10 nM
VCaP cells; Homo sapiens, VCaP
  IC50: < 10 nM

## C=C1CCC(N2C(=O)c3ccc(N4CC(N5CCC(Cc6ccc(N7CCC8(CC7)C[C@H](C)N(c7ccc(C#N)c(Cl)c7)C8)cc6)CC5)C4)cc3C2=O)C(=O)N1 (stereo partly shown) [compound 23]
AR
  Dmax: > 90%
LNCaP cells; Homo sapiens, LNCaP
  IC50: < 10 nM
VCaP cells; Homo sapiens, VCaP
  IC50: < 10 nM

## C[C@H]1CC2(CCN(c3ccc(S(=O)(=O)C4CCN(C5CCN(c6ccc7c(c6)C(=O)N(C6CCC(=O)NC6=O)C7=O)CC5)CC4)cc3)CC2)CN1c1ccc(C#N)c(Cl)c1 (stereo partly shown) [compound 161]
AR
  DC50: < 1 nM
LNCaP cells; Homo sapiens, LNCaP
  IC50: < 10 nM
VCaP cells; Homo sapiens, VCaP
  IC50: < 10 nM

## C[C@H]1CC2(CCN(c3ccc(CN4CCC(N5CCN(c6cc7c(cc6F)C(=O)N(C6CCC(=O)NC6=O)C7=O)CC5)CC4)cn3)CC2)CN1c1ccc(C#N)c(Cl)c1 (stereo partly shown) [compound 168]
AR
  DC50: < 10 nM
LNCaP cells; Homo sapiens, LNCaP
  IC50: < 10 nM
VCaP cells; Homo sapiens, VCaP
  IC50: < 10 nM

## C[C@H]1CC2(CCN(c3ccc(OC4CCN(C5CN(c6ccc7c(c6)C(=O)N(C6CCC(=O)NC6=O)C7=O)C5)CC4)nn3)CC2)CN1c1ccc(C#N)c(Cl)c1 (stereo partly shown) [compound 62]
AR
  DC50: < 1 nM
  Dmax: > 90%
LNCaP cells; Homo sapiens, LNCaP
  IC50: < 10 nM
VCaP cells; Homo sapiens, VCaP
  IC50: < 10 nM

## C[C@H]1CC2(CCN(c3ccc(CN4CCC(N5Cc6cc7c(cc6C5)C(=O)N(C5CCC(=O)NC5=O)C7=O)CC4)cc3)CC2)CN1c1ccc(C#N)c(Cl)c1 (stereo partly shown) [compound 19]
AR
  DC50: < 100 nM
  Dmax: 70 to 90%
LNCaP cells; Homo sapiens, LNCaP
  IC50: < 100 nM
VCaP cells; Homo sapiens, VCaP
  IC50: < 100 nM
